In patent US5703205A, “Laminin a chain polypeptides from the amino terminal golbular domain” (Regents of the University of Minnesota, priority 1993, dated 1997):

What was measured:
Format in all cases: cell-based
[1] = tested on: human colon carcinoma (K12C); experiment: Direct cell adhesion to coated surfaces (Table II); conditions: wells coated with 5 μg, 2 hours, % of total cells added
Excerpt: (§1) The human fibrosarcoma HT-1080 cell line was obtained from the ATCC. The murine melanoma K-1735-C10 (low metastatic) and K-1735-M4 (high metastatic) cell lines, murine UV-2237-MM fibrosarcoma cell line, human renal carcinoma SN12 PM-6 (high metastatic) cell line, and human colon carcinoma KM12 C (low metastatic) and KM12 SM (high metastatic) cell lines were originally provided by Dr. I. J. Fidler (M.D., Anderson Hospital, University of Texas Health Sciences Center, Houston, Tex.). The MM fibrosarcoma cell line was maintained in DME (GIBCO Laboratories, Grand Island, N.Y.) containing 10% FBS, the murine melanomas were maintained in DMEM containing 10% calf serum, the human fibrosarcoma cells were maintained in EMEM containing 10% heat inactivated FBS, and the human renal and colon carcinoma cells were grown in EMEM containing 10% FBS, vitamins, and 1 mM sodium pyruvate. Cells were passaged for 4 to 5 weeks and then replaced from frozen stocks of early passage cells to minimize phenotypic drift. Cells were maintained at 37° C. in a humidified incubator containing 5% CO2.
(§2) The direct adhesion of cells to protein or peptide coated surfaces was performed as described in Skubitz et al., Exp. Cell Res., 173, 349-360 (1987) and Charonis et al., supra (1988). Briefly, radiolabeled cells were added to 96-well microtiter plates coated with various concentrations of synthetic peptides, laminin, or BSA (0.02 μg/well-50 μg/well from 50 μl solutions) for various lengths of time. After the incubation period, loosely or nonadherent cells were removed by washing the wells three times. Adherent cells weresolubilized and quantitated in a scintillation counter. More specifically, cultures of cells which were 60-80% confluent were metabolically labeled for 24 hours with the addition of 3 μCi/ml of ^3 H-td (tritiated thymidine). On the day of the assay, the cells were harvested by trypsinization, the trypsin was inhibited by the addition of serum, and the cells were washed free of this mixture and resuspended in DMEM buffered with HEPES at pH 7.2. The adhesion medium also contained 2 mg/ml BSA. The cells were adjusted to a concentration of 3-4×10^4/ ml, and 100 μl of this cell suspension was added to the wells. The assay mixture was then incubated at 37° C. for 120 minutes. At the end of the incubation, the wells were washed with warm DMEM/Hepes containing 2 mg/ml BSA, and the adherent population was solubilized with 0.5N NaOH contained 1% SDS. The solubilized cells were then quantitated using a liquid scintillation counter.
(§3) Microtiter wells were adsorbed with peptide R18, laminin, or BSA and a variety of tumor cell lines were tested for the ability to adhere to the ligands. The six different tumor cell lines selected for this study were of murine or human origin and, in most cases, of either high or low metastatic capacity. As reported in Table II, peptide R18 was also capable of promoting the adhesion of all six cell lines.
(§4) *Microtiter wells were coated with 5 μg of the peptide or proteins and […]

[2] = tested on: human colon carcinoma (KI2SM); experiment: Direct cell adhesion to coated surfaces (Table II); conditions: wells coated with 5 μg, 2 hours, % of total cells added
Excerpt: as §1, §2, §3, §4

[3] = tested on: human renal carcinoma (SN12 PM6); experiment: Direct cell adhesion to coated surfaces (Table II); conditions: wells coated with 5 μg, 2 hours, % of total cells added
Excerpt: as §1, §2, §3, §4

murine fibrosarcoma (MM) = experiment: Direct cell adhesion to coated surfaces (Table II); conditions: wells coated with 5 μg, 2 hours, % of total cells added
Excerpt: as §1, §2, §3, §4

murine melanoma (C10) = experiment: Direct cell adhesion to coated surfaces (Table II); conditions: wells coated with 5 μg, 2 hours, % of total cells added
Excerpt: as §1, §2, §3, §4

murine melanoma (M4) = experiment: Direct cell adhesion to coated surfaces (Table II); conditions: wells coated with 5 μg, 2 hours, % of total cells added
Excerpt: as §1, §2, §3, §4

[4] = tested on: HT-1080 human fibrosarcoma cells; experiment: Cell spreading assay on coated surfaces; conditions: for Cells Spread (%) / Surface Area Occupied by a Cell: wells coated with 300 μl at 100 μg/ml, 2 1/2 hour incubation
Description: Spreading of the adherent cells was evaluated by performing adhesion assays similar to those described above. Twenty-four well tissue culture plates (Becton Dickinson and Co., Lincoln Park, N.J.) were coated with 300 μl of laminin, synthetic peptides, or BSA at 100 μg/ml, then blocked with 2 mg/ml BSA in PBS. Three hundred microliters of a cell suspension at 5×10^4 cells/ml was added to each well, and after a 21/2 hour incubation, nonadherent cells were aspirated out of the wells. Adherent cells were fixed with 2% glutaraldehyde in PBS at 23° C. for one hour. The glutaraldehyde was then removed and the cells were stained by two different techniques. For photographic purposes, the cells were stained with Diff-Quik Solution I (American Scientific Products, McGaw Park, Ill.) for 10 minutes at 23° C. Solution I was removed, then Diff-Quik Solution II was added and the cells were stained for another 10 minutes at 23° C. Wells were washed with PBS, then representative cells were photographed with a Nikon DIAPHOT inverted phase microscope using Panatomic X Film ASA32 (Eastman Kodak, Rochester, N.Y.). Adherent cells to be quantitated for spreading were stained overnight at 23° C. with 500 μl of a solution containing 0.12% (w/v) Coomassie Brilliant Blue R (Sigma Chemical Co.), 5% (v/v) acetic acid, and 50% (v/v) ethanol. Wells were washed three times with 500 μl of PBS and cell spreading was then quantitated by measuring the average surface area occupied by a cell using an Opti-Max Image Analyzer. Thirty cells were measured per well; each experiment was done in quadruplicate and repeated three times. Cells spread the best on peptide R17 and R18 and occupy an area of ~30% of that seen for cells on laminin-coated surfaces. On surfaces coated with peptides R19, R20, and R32, less cell spreading was observed; cells occupied an area ~20% of that seen on intact laminin. Cell spreading on ovalbumin (negative control) was less than 10% of that seen on laminin but the cells were barely adherent under these last conditions.

[5] = tested on: HT-1080 human fibrosarcoma cells; experiment: Direct adhesion of radiolabeled cells to peptide or protein coated microtiter wells; conditions: increasing concentrations adsorbed, up to 5 μg/well; 120 minutes
Description: FIG. 3 reports results in microtiter wells adsorbed with increasing concentrations of HPLC-purified peptides R17 (.smallcircle.) R18 (.quadrature.), or R19 (Δ), R20 (.circle-solid.), R32 (.box-solid.), laminin (.tangle-solidup.), or ovalbumin (.diamond.) and radiolabeled HT-1080 human fibrosarcoma cells that were allowed to adhere for 2 hours after being released from flasks with EDTA/trypsin. Each value represents the mean of four separate determinations, and the SEM was less than 10% in each case.
The direct adhesion of cells to protein or peptide coated surfaces was performed as described in Skubitz et al., Exp. Cell Res., 173, 349-360 (1987) and Charonis et al., supra (1988). Briefly, radiolabeled cells were added to 96-well microtiter plates coated with various concentrations of synthetic peptides, laminin, or BSA (0.02 μg/well-50 μg/well from 50 μl solutions) for various lengths of time. After the incubation period, loosely or nonadherent cells were removed by washing the wells three times. Adherent cells weresolubilized and quantitated in a scintillation counter. […] The solubilized cells were then quantitated using a liquid scintillation counter.
In this case, increasing concentrations of the five synthetic peptides were adsorbed to microtiter wells. Radiolabeled HT-1080 human fibrosarcoma cells were incubated in the wells for 120 minutes and the adhesion of cells was quantitated. […]

Substance	Cell Adhesion (%) to Coated Surfaces [1] [%]	Cell Adhesion (%) to Coated Surfaces [2] [%]	Cell Adhesion (%) to Coated Surfaces [3] [%]	Cell Adhesion (%) to Coated Surfaces (murine fibrosarcoma (MM)) [%]	Cell Adhesion (%) to Coated Surfaces (murine melanoma (C10)) [%]	Cell Adhesion (%) to Coated Surfaces (murine melanoma (M4)) [%]	Cells Spread (%) [4] [%]	Surface Area Occupied by a Cell [4] [um^2]	cell adhesion to coated wells (in words) [5]	area occupied by cells relative to that on laminin-coated surfaces ([4]; HT-1080 cell spreading, relative to intact laminin)
Laminin	25	36	40	43	80	50	95	611 ± 79	–	–
Ovalbumin: negative control protein	–	–	–	–	–	–	0	71 ± 41	no cell adhesion was observed	less than 10%
